Reference: patent US5112806A, “Antibiotic, mersacidin, a process for the preparation thereof and the use thereof as a pharmaceutical” (Hoechst Aktiengesellschaft, priority 1988, dated 1992)

Key:
[1] = tested on: S. aureus E 710 (MRSA); assay: In vivo activity against S. aureus E 710 (MRSA) in mice; conditions: S. aureus E 710 (MRSA), 5 × 10^9 CFU/mouse (1 MLD); for Approx. ED50 / Approx. ED90: s.c.
Method: On subcutaneous administration in a dose of 9.37 and 25.00 mg/kg to laboratory mice infected experimentally with Staphylococcus aureus SG 511 and S. aureus 710 (resistant to methicillin), […]. […]

[2] = tested on: S. aureus SG 511; assay: In vivo activity against S. aureus SG 511 infection in mice; conditions: S. aureus SG 511, 1.75 × 10^9 CFU/mouse; for Number of mice treated/cured / percentage rate of cure: 9.37 mg/kg × 3, s.c.
Method: On subcutaneous administration in a dose of 9.37 and 25.00 mg/kg to laboratory mice infected experimentally with Staphylococcus aureus SG 511 and S. aureus 710 (resistant to methicillin), […].
In vivo activity of mersacidin against S. aureus SG 511
infection in mice compared with vancomycin.
Inoculation medium used: 1.75 × 10^9 CFU/mouse

[3] = tested on: S. aureus SG 511; assay: In vivo activity against S. aureus SG 511 abscess in rats; conditions: infecting dose 2 × 10^-9 CFU in 5% mucin under the skin, 50 mg/kg × 7 days
Method: In vivo activity of mersacidin against S. aureus SG 511 abscess in rats, compared with vancomycin.
Infecting dose : […] in 5% mucin, injected under the skin.
Treatment: 50 mg/kg × 7 days

[4] = tested on: S. aureus SG 511; assay: In vivo activity against S. aureus SG 511 infection in mice
[5] = tested on: S. aureus 20424; assay: MIC, growth inhibition in vitro; type: cell-based
From the text: (§1) The biological properties of mersacidin as the MIC values required for inhibition of the growth of various microorganisms are listed in Table 3.

[6] = tested on: S. aureus 20666; assay: MIC, growth inhibition in vitro; type: cell-based
From the text: as §1

[7] = tested on: S. epidermidis MSSE; assay: MIC, growth inhibition in vitro; type: cell-based
From the text: as §1

[8] = tested on: Bacillus subtilis; assay: MIC, growth inhibition in vitro; type: cell-based
From the text: as §1

[9] = tested on: Staphylococcus aureus SG 511; assay: MIC, growth inhibition in vitro; type: cell-based
From the text: as §1

[10] = tested on: Group A Streptococci; assay: MIC, growth inhibition in vitro; type: cell-based
From the text: as §1

[11] = tested on: S. aureus R 85; assay: MIC, growth inhibition in vitro; type: cell-based
From the text: as §1

[12] = tested on: S. aureus 285; assay: MIC, growth inhibition in vitro; type: cell-based
From the text: as §1

[13] = tested on: Group B Streptococci; assay: MIC, growth inhibition in vitro; type: cell-based
From the text: as §1

[14] = tested on: S. aureus 789; assay: MIC, growth inhibition in vitro; type: cell-based
From the text: as §1

[15] = tested on: S. aureus 710; assay: MIC, growth inhibition in vitro; type: cell-based
From the text: as §1

[16] = tested on: S. epidermidis MRSE; assay: MIC, growth inhibition in vitro; type: cell-based
From the text: as §1

[17] = tested on: Streptococcus faecalis; assay: MIC, growth inhibition in vitro; type: cell-based; conditions: Streptococcus faecalis (Table 3 no. 17)
From the text: as §1

[18] = tested on: S. aureus 503; assay: MIC, growth inhibition in vitro; type: cell-based
From the text: as §1

[19] = tested on: Group C Streptococci; assay: MIC, growth inhibition in vitro; type: cell-based
From the text: as §1

[20] = tested on: Staphylococcus aureus 209P; assay: MIC, growth inhibition in vitro; type: cell-based
From the text: as §1

[21] = tested on: S. aureus 20240; assay: MIC, growth inhibition in vitro; type: cell-based
From the text: as §1

[22] = tested on: Group G Streptococci; assay: MIC, growth inhibition in vitro; type: cell-based
From the text: as §1

[23] = tested on: Micrococcus luteus; assay: MIC, growth inhibition in vitro; type: cell-based
From the text: as §1

[24] = tested on: Listeria monocyctogenes; assay: MIC, growth inhibition in vitro; type: cell-based
From the text: as §1

[25] = tested on: S. aureus E 712; assay: MIC, growth inhibition in vitro; type: cell-based
From the text: as §1

[26] = tested on: Streptococcus pneumoniae; assay: MIC, growth inhibition in vitro; type: cell-based
From the text: as §1

[27] = tested on: S. aureus E 88; assay: MIC, growth inhibition in vitro; type: cell-based
From the text: as §1

[28] = tested on: Streptococcus viridans; assay: MIC, growth inhibition in vitro; type: cell-based
From the text: as §1

[29] = tested on: Streptococcus bovis; assay: MIC, growth inhibition in vitro; type: cell-based
From the text: as §1

[30] = tested on: Cornybacterium JK; assay: MIC, growth inhibition in vitro; type: cell-based
From the text: as §1

[31] = tested on: Propionibacterium genes; assay: MIC, growth inhibition in vitro; type: cell-based
From the text: as §1

[32] = tested on: Str. D 21777; assay: MIC, growth inhibition in vitro; type: cell-based
From the text: as §1

[33] = tested on: S. aureus 3066; assay: MIC, growth inhibition in vitro; type: cell-based
From the text: as §1

[34] = tested on: S. aureus 722; assay: MIC, growth inhibition in vitro; type: cell-based
From the text: as §1

[35] = tested on: Peptostreptococci species; assay: MIC, growth inhibition in vitro; type: cell-based
From the text: as §1

[36] = Animal mortality after subcutaneous dose; type: in vivo; conditions: laboratory mice; 500 mg/kg subcutaneous, highest concentration tested
[37] = tested on: Streptococcus faecalis; assay: MIC, growth inhibition in vitro (second entry, no. 27); type: cell-based; conditions: Streptococcus faecalis (Table 3 no. 27)
From the text: as §1

[38] = mice, S. aureus SG 511, 1.75 × 10^9 CFU/mouse, 3.12 mg/kg × 3, s.c.
[39] = mice, S. aureus SG 511, 1.75 × 10^9 CFU/mouse, 6.25 mg/kg × 3, s.c.
[40] = mice, S. aureus SG 511, 1.75 × 10^9 CFU/mouse, 12.5 mg/kg × 3, s.c.
[41] = mice, S. aureus SG 511, 1.75 × 10^9 CFU/mouse, 18.75 mg/kg × 3, s.c.
[42] = mice, S. aureus SG 511, 1.75 × 10^9 CFU/mouse, 0.80 mg/kg × 3, s.c.
[43] = mice, S. aureus SG 511, 1.75 × 10^9 CFU/mouse, 1.60 mg/kg × 3, s.c.

## CN[C@H](CC(C)C)C(=O)N[C@H]1C(=O)N[C@@H](CC(N)=O)C(=O)N[C@H]2C(=O)N[C@H]3C(=O)N[C@H](C(=O)N[C@H](C(=O)O)c4cc(O)cc(O)c4-c4cc3ccc4O)[C@H](O)c3ccc(c(Cl)c3)Oc3cc2cc(c3O[C@@H]2O[C@H](CO)[C@@H](O)[C@H](O)[C@H]2O[C@H]2C[C@](C)(N)[C@H](O)[C@H](C)O2)Oc2ccc(cc2Cl)[C@H]1O [Vancomycin, reference compound]
[1]; 6.25 mg/kg × 3, s.c.
  Number of mice treated/cured: 0/11
  percentage rate of cure: 0%
[1]; 12.50 mg/kg × 3, s.c.
  Number of mice treated/cured: 3/11
  percentage rate of cure: 27%
[1]; 25.00 mg/kg × 3, s.c.
  Number of mice treated/cured: 14/21
  percentage rate of cure: 67%
[1]; 37.00 mg/kg × 3, s.c.
  Number of mice treated/cured: 6/6
  percentage rate of cure: 100%
[1]
  Approx. ED50: ~18.94 mg/kg × 3
  Approx. ED90: ~32.01 mg/kg × 3
[2]
  Number of mice treated/cured: 48/53
  percentage rate of cure: 85%
[2]; s.c.
  Approx. ED50: ~7.20 mg/kg × 3
  Approx. ED90: ~9.37 mg/kg × 3
[3]
  reduces bacterial counts by: 0.79 log10 CFU/ml
[4]; [38]
  Number of mice treated/cured: 2/41
  percentage rate of cure: 5%
[4]; [39]
  Number of mice treated/cured: 13/44
  percentage rate of cure: 29%
[4]; [40]
  Number of mice treated/cured: 59/61
  percentage rate of cure: 97%
[4]; [41]
  Number of mice treated/cured: 71/71
  percentage rate of cure: 100%

## mersacidin
[5]
  MIC values: 1.56 to 3.12 µg/mL
[6]
  MIC values: 3,12-6,25 μg/ml
[7]
  MIC values: 0,5-16,0 μg/ml
[8]
  MIC values: 0,39-0,78 μg/ml
[9]
  MIC values: 0,39-0,78 μg/ml
[10]
  MIC values: 0,5-8,0 μg/ml
[11]
  MIC values: 0,39-0,78 μg/ml
[12]
  MIC values: 0,78-1,56 μg/ml
[13]
  MIC values: 1,0-8,0 μg/ml
[14]
  MIC values: 0.78 to 1.56 µg/mL
[15]
  MIC values: 0,39-0,78 μg/ml
[16]
  MIC values: 0,5-16,0 μg/ml
[17]
  MIC values: 0,0975-0,195 μg/ml
[18]
  MIC values: 0.78 to 1.56 µg/mL
[19]
  MIC values: 2,0-64 μg/ml
[20]
  MIC values: 0.78 to 1.56 µg/mL
[21]
  MIC values: 3.12 to 6.25 µg/mL
[22]
  MIC values: 2,0-8,0 μg/ml
[23]
  MIC values: 0,0975-0,195 μg/ml
[24]
  MIC values: 16,0-64,0 μg/ml
[25]
  MIC values: 3,12-6,25 μg/ml
[26]
  MIC values: 1,0-4,0 μg/ml
[27]
  MIC values: 6.25 to 12.50 µg/mL
[28]
  MIC values: 0,5-32,0 μg/ml
[29]
  MIC values: 4,0-32,0 μg/ml
[30]
  MIC values: 2,0-4,0 μg/ml
[31]
  MIC values: 1,0-16,0 μg/ml
[32]
  MIC values: 1,56-3,12 μg/ml
[33]
  MIC values: 12.50 to 25.00 µg/mL
[34]
  MIC values: 3.12 to 6.25 µg/mL
[35]
  MIC values: 0,5-8,0 μg/ml
[1]; 6.25 mg/kg × 3, s.c.
  Number of mice treated/cured: 1/10
  percentage rate of cure: 10%
[1]; 9.37 mg/kg × 3, s.c.
  Number of mice treated/cured: 4/10
  percentage rate of cure: 40%
[1]; 12.50 mg/kg × 3, s.c.
  Number of mice treated/cured: 10/16
  percentage rate of cure: 63%
[1]; 25.00 mg/kg × 3, s.c.
  Number of mice treated/cured: 12/12
  percentage rate of cure: 100%
[1]
  Approx. ED50: ~10.81 mg/kg × 3
  Approx. ED90: ~19.59 mg/kg × 3
[2]
  Number of mice treated/cured: 53/53
  percentage rate of cure: 100%
[2]; s.c.
  Approx. ED50: ~2.59 mg/kg × 3
[36]
  animal mortality: no animal mortality was observed
[3]
  reduces bacterial counts by: 1.4 log10 CFU/ml
[37]
  MIC values: 64,0 μg/ml
[4]; mice infected with S. aureus SG 511 and S. aureus 710 (resistant to methicillin), 9.37 and 25.00 mg/kg s.c.
  activity in the in vivo system of laboratory mice: good activity
[4]; [42]
  Number of mice treated/cured: 0/27
  percentage rate of cure: 0%
[4]; [43]
  Number of mice treated/cured: 3/24
  percentage rate of cure: 12%
[4]; [38]
  Number of mice treated/cured: 18/27
  percentage rate of cure: 67%
[4]; [39]
  Number of mice treated/cured: 38/40
  percentage rate of cure: 95%
[4]; mice, S. aureus SG 511, 1.75 × 10^9 CFU/mouse, s.c.
  Approx. ED90: ~5.38 mg/kg × 3
